Test results: patent US8299093B2, “Small molecule inhibitors of retroviral assembly and maturation” (New York Blood Center, Inc., priority 2008, dated 2012)
Where two headings read alike, the source gives them in different places.

What was measured:
Type in all cases: cell-based
HIV-1 93IN101 = experiment: Antiviral activity (p24) against primary isolate 93IN101 in PBMC; settings: Human immunodeficiency virus 1, 93IN101, subtype C, R5, primary isolate
Description: (§1) Peripheral blood mononuclear cells (PBMCs) were isolated from the blood of healthy donors by standard density gradient centrifugation using Histopaque-1077 (Sigma). The cells were cultured at 37° C. for 2 hours. Nonadherent cells were collected and resuspended at 5×10^6 cells/ml RPMI-1640 medium containing 10% FBS, 5 μg/ml PHA, and 100 U/ml IL-2 (Sigma), followed by incubation at 37° C. for 3 days. The PHA-stimulated cells (5×10^4 cells/well) were infected with primary HIV-1 isolates at 500 TCID50 (0.01 MOI) in the absence or presence of small molecule inhibitor at graded concentrations. Culture media were changed every 3 days and replaced with fresh media containing freshly prepared inhibitor. The supernatants were collected 7 days post-infection and tested for p24 antigen by ELISA. The inhibition of p24 production in PBMC was measured over a range of concentrations and the concentration required to inhibit 50% (IC50) of the p24 production was calculated by the GraphPad Prism software.
(§2) The molecules in Tables 3 include the calculated IC50 values and use “A1” to denote IC50<10 μM and “B1” to denote IC50>10 μM and “C1” to denote CC50<50 μM and “D1” to denote […].

HIV-1 BCF02 = experiment: Antiviral activity (p24) against primary isolate BCF02 in PBMC; settings: Human immunodeficiency virus 1, BCF02, Group (O), R5, primary isolate
Description: as §1, §2

HIV-1 MN = experiment: Antiviral activity (p24) against HIV-1 MN in MT-2; settings: Human immunodeficiency virus 1, subtype B, MT-2, X4, laboratory strain
Description: (§3) AZT was used as a positive control in the infectivity assays. In brief, 1×10^4 MT-2 cells (lymphocytes) were infected with HIV-1 at 100 TCID50 (50% tissue culture infective dose, 0.01 MOI [multiplicity of infection]) in 200 μL RPMI 1640 medium containing 10% FBS in the presence or absence of small molecules at graded concentrations overnight. The culture supernatants were then removed and fresh media containing freshly prepared test compounds were added. On the fourth day post-infection, 100 μL of culture supernatants were collected from each well, mixed with equal volume of 5% TRITON X-100® and tested for p24 antigen by ELISA®. The IC50 values were calculated by the GraphPad Prism software (GraphPad Software®, Inc.) and the values were classified as IC50<10 μM and IC50>10 μM.
as §2

HIV-1 = experiment: Inhibition of HIV-1 infectivity (p24 ELISA) in MT-2 cells, laboratory-adapted HIV-1 strains; settings: for IC50: Human immunodeficiency virus 1, MT2, 96 h, MT-2 cells, p24 ELISA day 4; for Activity against a broad range of HIV-1 laboratory-adapted and primary isolates: including one RT-inhibitor-resistant and one protease-inhibitor-resistant isolate (summary of Table 3)
Description: as §3, with “ELISA®.” for “ELISA®. The IC50 values were calculated by the GraphPad Prism software (GraphPad Software®, Inc.) and the values were classified as IC50<10 μM and IC50>10 μM.”

HIV-1RF/L-323-12-3 = experiment: Antiviral activity (p24) against protease resistant isolate HIV-1RF/L-323-12-3 in MT-2; settings: Human immunodeficiency virus 1
Description: as §3, §2

HIV-1 93Br020 = experiment: Antiviral activity (p24) against primary isolate 93Br020 in PBMC; settings: Human immunodeficiency virus 1, 93Br020, subtype F, R5X4, primary isolate
Description: as §1, §2

HIV-1 IIIB = experiment: Antiviral activity (p24) against HIV-1 IIIB in MT-2; settings: Human immunodeficiency virus 1, subtype B, MT-2, X4, laboratory strain
Description: as §3, §2

HIV-1 BaL = experiment: Antiviral activity (p24) against HIV-1 BaL in PBMC; settings: Human immunodeficiency virus 1, subtype B, R5, laboratory strain
Description: as §3, §1, §2

[1] = XTT cytotoxicity assay in MT-2 cells; settings: human; for CC50 at 4 days: MT-2 cells; for CC50: cell type not given
Description: (§4) Briefly, for MT-2 cells, 100 μL of small molecule at graded concentrations was added to an equal volume of cells (5×10^4 cells/ml) in 96-well plates followed by incubation at 37° C. for 4 days, which ran parallel to the neutralization assay in MT-2 (except medium was added instead of virus). In the case of PBMC, 2.5×10^5 cells/mL were used and the cytotoxicity was measured after 7 days. After addition of XTT (PolySciences, Inc.), the soluble intracellular formazan was quantitated calorimetrically at 450 nm 4 hours later with a reference at 620 nm. The CC50 values were calculated.

HIV-1 RU570 = experiment: Antiviral activity (p24) against primary isolate RU570 in PBMC; settings: Human immunodeficiency virus 1, RU570, subtype G, R5, primary isolate
Description: as §1, §2

HIV-1 92US657 = experiment: Antiviral activity (p24) against primary isolate 92US657 in PBMC; settings: Human immunodeficiency virus 1, 92US657, subtype B, R5, primary isolate
Description: as §1, §2

HIV-1 AZT-R = experiment: Antiviral activity (p24) against RT-resistant isolate AZT-R in MT-2; settings: Human immunodeficiency virus 1
Description: as §3, §2

HIV-1 SF2 = experiment: Antiviral activity (p24) against HIV-1 SF2 in MT-2; settings: Human immunodeficiency virus 1; SF2, subtype B, MT-2, R5X4, laboratory strain
Description: as §3, §2

[2] = XTT cytotoxicity assay in PBMC; settings: human
Description: as §4, with “Cytotoxicity of small molecules in cultures with MT-2 cells and PBMC was measured by the tetrazolium hydroxide XTT (sodium 3′-(1-(phenylamino)-carbonyl)-3,4-tetrazolium-bis(4-methoxy-6-nitro) benzenesulfonic acid hydrate) cytotoxicity assay, as previously described (Jiang et al., 2004). Briefly,” for “Briefly,”

HIV-1 RF = experiment: Antiviral activity (p24) against HIV-1 RF in MT-2; settings: Human immunodeficiency virus 1, subtype B, MT-2, X4, laboratory strain
Description: as §3, §2

[3] = Table 2, formula II, read-out: CC50
[4] = read-out: IC50 (concentration that provides 50% inhibition of HIV-1 p24), Table 1, formula I
[5] = Table 1, formula I, read-out: CC50 (concentration that causes 50% cytotoxicity)

Row | Compound | IC50 (HIV-1; [4]) [µM] | CC50 [1, 5] [µM] | further results
1 | Cc1cc(=O)n2c3ccccc3n(CC(O)CNc3ccc(F)cc3)c2c1C#N (stereo not drawn) [NYAD-S8] | – | – | IC50 (HIV-1 93IN101): < 10 µM; IC50 (HIV-1 BCF02): > 10 µM; IC50 (HIV-1 MN): < 10 µM; IC50 (HIV-1; Table 2, formula II): > 10 µM; Activity against a broad range of HIV-1 laboratory-adapted and primary isolates (HIV-1): consistently potent activity; IC50 (HIV-1RF/L-323-12-3): < 10 µM; IC50 (HIV-1 93Br020): < 10 µM; IC50 (HIV-1 IIIB): > 10 µM; IC50 (HIV-1 BaL): < 10 µM; CC50 at 4 days [1]: > 50 µM; CC50 [1, 3]: > 10 µM; IC50 (HIV-1 RU570): < 10 µM; IC50 (HIV-1 92US657): < 10 µM; IC50 (HIV-1 AZT-R): < 10 µM; IC50 (HIV-1 SF2): < 10 µM; CC50 at 7 days [2]: > 50 µM; IC50 (HIV-1 RF): < 10 µM
2 | Cc1cc(=O)n2c3ccccc3n(CC(O)CN3CCN(C(c4ccccc4)c4ccccc4)CC3)c2c1C#N (stereo not drawn) [NYAD-S17] | – | – | IC50 (HIV-1 93IN101): < 10 µM; IC50 (HIV-1 BCF02): < 10 µM; IC50 (HIV-1 MN): < 10 µM; IC50 (HIV-1; Table 2, formula II): < 10 µM; Activity against a broad range of HIV-1 laboratory-adapted and primary isolates (HIV-1): consistently potent activity; IC50 (HIV-1 IIIB): < 10 µM; IC50 (HIV-1 BaL): < 10 µM; CC50 at 4 days [1]: < 50 µM; CC50 [1, 3]: > 10 µM; IC50 (HIV-1 RU570): < 10 µM; IC50 (HIV-1 92US657): < 10 µM; IC50 (HIV-1 AZT-R): < 10 µM; IC50 (HIV-1 SF2): < 10 µM; CC50 at 7 days [2]: < 50 µM; IC50 (HIV-1 RF): < 10 µM
3 | Cc1ccc2cc(CN(Cc3ccco3)C(=O)c3cccc(F)c3)c(=O)[nH]c2c1 [NYAD-S81] | < 10 | > 10 | –
4 | Cc1cc(C)c2[nH]c(=O)c(CN(Cc3ccco3)C(=O)c3ccc(Br)cc3)cc2c1 [NYAD-S82] | > 10 | > 10 | –
5 | CCOc1ccc(C(=O)N(Cc2ccco2)Cc2cc3cc(OC)c(OC)cc3[nH]c2=O)cc1 [NYAD-S84] | > 10 | > 10 | –
6 | Cc1ccc(C)c2[nH]c(=O)c(CN(Cc3ccco3)C(=O)c3ccc(Br)cc3)cc12 [NYAD-S85] | > 10 | > 10 | –
7 | CCOc1ccc2[nH]c(=O)c(CN(Cc3ccco3)C(=O)c3ccccc3Cl)cc2c1 [NYAD-S89] | > 10 | > 10 | –
8 | Cc1ccc2[nH]c(=O)c(CN(Cc3ccco3)C(=O)c3ccccc3Br)cc2c1 [NYAD-S90] | > 10 | > 10 | –
9 | Cc1ccc2[nH]c(=O)c(CN(Cc3ccco3)C(=O)c3ccc(C(C)(C)C)cc3)cc2c1 [NYAD-S91] | > 10 | > 10 | –
10 | Cc1ccc(C(=O)N(Cc2ccco2)Cc2cc3ccc(C)cc3[nH]c2=O)cc1 [NYAD-S92] | > 10 | > 10 | –
11 | CCOc1ccc2[nH]c(=O)c(CN(Cc3ccco3)C(=O)c3ccc(Br)cc3)cc2c1 [NYAD-S94] | > 10 | > 10 | –
12 | CCOc1ccc2[nH]c(=O)c(CN(Cc3ccc(F)cc3)C(=O)c3ccco3)cc2c1 [NYAD-S95] | > 10 | > 10 | –
13 | Cc1ccc2[nH]c(=O)c(CN(Cc3ccc(F)cc3)C(=O)c3ccco3)cc2c1 [NYAD-S96] | > 10 | > 10 | –
14 | CCOc1ccc2[nH]c(=O)c(CN(Cc3ccco3)C(=O)c3cccc(F)c3)cc2c1 [NYAD-S97] | > 10 | < 10 | –
15 | Cc1ccc2[nH]c(=O)c(CN(Cc3ccc(Cl)cc3)C(=O)c3ccccc3)cc2c1 [NYAD-S98] | > 10 | > 10 | –
16 | CCc1ccc2[nH]c(=O)c(CN(Cc3ccco3)C(=O)c3ccccc3)cc2c1 [NYAD-S99] | > 10 | > 10 | –

Row | Compound | IC50 (HIV-1; [4]) [µM] | CC50 [1, 5] [µM] | further results
17 | COc1ccc2[nH]c(=O)c(CN(Cc3ccco3)C(=O)c3ccc(C)cc3)cc2c1 [NYAD-S100] | < 10 | > 10 | –
18 | Cc1cc(C)c2[nH]c(=O)c(CN(Cc3ccco3)C(=O)c3ccco3)cc2c1 [NYAD-S101] | > 10 | > 10 | –
19 | CCc1ccc2[nH]c(=O)c(CN(Cc3cccs3)C(=O)c3ccco3)cc2c1 [NYAD-S102] | > 10 | > 10 | –
20 | Cc1cc(C)c2[nH]c(=O)c(CN(Cc3ccco3)C(=O)c3ccc(F)cc3)cc2c1 [NYAD-S103] | > 10 | > 10 | –
21 | Cc1cc(C)c2cc(CN(Cc3ccco3)C(=O)C3CCCCC3)c(=O)[nH]c2c1 [NYAD-S104] | > 10 | > 10 | –
22 | COc1ccc2cc(CN(Cc3ccco3)C(=O)c3ccccc3)c(=O)[nH]c2c1 [NYAD-S105] | > 10 | > 10 | –
23 | CCOc1ccc2[nH]c(=O)c(CN(Cc3ccco3)C(=O)c3ccco3)cc2c1 [NYAD-S106] | > 10 | > 10 | –
24 | Cc1cc(C)c2[nH]c(=O)c(CN(Cc3ccco3)C(=O)c3ccncc3)cc2c1 [NYAD-S107] | > 10 | > 10 | –
25 | CCOc1ccc2[nH]c(=O)c(CN(Cc3ccco3)C(=O)c3ccc(C(C)(C)C)cc3)cc2c1 [NYAD-S108] | > 10 | > 10 | –
26 | CCOc1ccc2[nH]c(=O)c(CN(Cc3ccco3)C(=O)c3cc(OC)c(OC)c(OC)c3)cc2c1 [NYAD-S109] | > 10 | > 10 | –
27 | CCc1ccc2[nH]c(=O)c(CN(Cc3ccco3)C(=O)c3ccc(C(C)(C)C)cc3)cc2c1 [NYAD-S110] | > 10 | > 10 | –
28 | Cc1cc(C)c2cc(CN(Cc3ccco3)C(=O)c3ccccc3)c(=O)[nH]c2c1 [NYAD-S111] | > 10 | > 10 | –
29 | Cc1cccc2cc(CN(Cc3ccco3)C(=O)c3cccc(F)c3)c(=O)[nH]c12 [NYAD-S118] | < 10 | > 10 | –
30 | Cc1ccc(CN(Cc2cc3cc(C)ccc3[nH]c2=O)C(=O)c2ccco2)cc1 [NYAD-S121] | < 10 | > 10 | –
31 | Cc1ccc(C(=O)N(Cc2ccco2)Cc2cc3cccc(C)c3[nH]c2=O)cc1 [NYAD-S122] | < 10 | < 10 | –
